Test results reported in PubChem BioAssay AID288 (DTP/NCI, 2004).
“And” between values parts separate entries of the source, which are not always exact repeats. Identical values can stand only once. Inconclusive results are not listed.

System: BDF1 mice, M5076 sarcoma s.c., survival/tumor T/C
Assay: NCI In Vivo Anticancer Drug Screen. Data for tumor model Sarcoma M5076 (subcutaneous) in B6D2F1 (BDF1) mice
Experimental: The antitumor activity of compounds was measured in mice bearing transplantable tumors. Survival or tumor size were measured and the results are expressed as the measurement made in the treated group (T) divided by the measurement made in the vehicle treated control group (C). The tumor model used in this assay is Sarcoma M5076 (subcutaneous) in B6D2F1 (BDF1) mice

[1] = endpoint: median survival time, dose: 50.0 mg/kg/injection, schedule: Q01DX009 (ip), vehicle: saline with Tween-80, higher = longer survival
[2] = endpoint: median survival time, dose: 100.0 mg/kg/injection, schedule: Q01DX009 (ip), vehicle: saline with Tween-80, higher = longer survival
[3] = endpoint: median survival time, dose: 200.0 mg/kg/injection, schedule: Q01DX009 (ip), vehicle: saline with Tween-80, higher = longer survival
[4] = endpoint: median tumor weight (est.), dose: 50.0 mg/kg/injection, schedule: Q01DX009 (ip), vehicle: saline with Tween-80, higher = larger tumour
[5] = endpoint: median tumor weight (est.), dose: 100.0 mg/kg/injection, schedule: Q01DX009 (ip), vehicle: saline with Tween-80, higher = larger tumour
[6] = endpoint: median tumor weight (est.), dose: 200.0 mg/kg/injection, schedule: Q01DX009 (ip), vehicle: saline with Tween-80, higher = larger tumour

## O=C1/C(=C/c2cccc([N+](=O)[O-])c2)SC(=S)N1C1CC1
[1]
  T/C: 94 % of control
[2]
  T/C: 94 % of control
[3]
  T/C: 89 % of control
[4]
  T/C: 100 % of control
[5]
  T/C: 97 % of control

## O=C1CC(Cl)(CS(F)(F)(F)(F)F)O1 (stereo not given)
[1]
  T/C: 100 % of control
[4]
  T/C: 56 % of control

## Cc1c2ccncc2c(C)c2c1[nH]c1ccccc12
endpoint: mean tumor weight, dose: 12.5 mg/kg/injection, schedule: Q02DX011 (ip), vehicle: saline, higher = larger tumour
  T/C: 100 % of control
endpoint: mean tumor weight, dose: 12.5 mg/kg/injection, schedule: Q02DX011 (ip), vehicle: water, higher = larger tumour
  T/C: 55 % of control
endpoint: mean tumor weight, dose: 25.0 mg/kg/injection, schedule: Q02DX011 (ip), vehicle: saline, higher = larger tumour
  T/C: 65 % of control
endpoint: mean tumor weight, dose: 50.0 mg/kg/injection, schedule: Q02DX011 (ip), vehicle: saline, higher = larger tumour
  T/C: 36 % of control
endpoint: median tumor weight (est.), dose: 12.5 mg/kg/injection, schedule: Q02DX011 (ip), vehicle: saline, higher = larger tumour
  T/C: 355 % of control
endpoint: median tumor weight (est.), dose: 12.5 mg/kg/injection, schedule: Q02DX011 (ip), vehicle: water, higher = larger tumour
  T/C: 47 % of control
endpoint: median tumor weight (est.), dose: 25.0 mg/kg/injection, schedule: Q02DX011 (ip), vehicle: saline, higher = larger tumour
  T/C: 314 % of control
endpoint: median tumor weight (est.), dose: 50.0 mg/kg/injection, schedule: Q02DX011 (ip), vehicle: saline, higher = larger tumour
  T/C: 98 % of control

## CCOC(=O)C(CC(C)C)NC(=O)C(Cc1ccc(N(CCCl)CCCl)cc1)NC(C)=O (stereo not given)
endpoint: median survival time, dose: 8.0 mg/kg/injection, schedule: Q01DX009 (ip), vehicle: saline with Tween-80, higher = longer survival
  T/C: 111 % of control
endpoint: median survival time, dose: 16.0 mg/kg/injection, schedule: Q01DX009 (ip), vehicle: saline with Tween-80, higher = longer survival
  T/C: 117 % of control and 122 % of control
endpoint: median survival time, dose: 64.0 mg/kg/injection, schedule: Q01DX009 (ip), vehicle: saline with Tween-80, higher = longer survival
  T/C: 170 % of control
endpoint: median tumor weight (est.), dose: 8.0 mg/kg/injection, schedule: Q01DX009 (ip), vehicle: saline with Tween-80, higher = larger tumour
  T/C: 61 % of control
endpoint: median tumor weight (est.), dose: 16.0 mg/kg/injection, schedule: Q01DX009 (ip), vehicle: saline with Tween-80, higher = larger tumour
  T/C: 52 % of control
endpoint: median tumor weight (est.), dose: 32.0 mg/kg/injection, schedule: Q01DX009 (ip), vehicle: saline with Tween-80, higher = larger tumour
  T/C: 16 % of control

## Nc1nc([Se])c2ncn(C3OC(CO)C(O)C3O)c2n1 (stereo not given)
endpoint: median survival time, dose: 4.0 mg/kg/injection, schedule: Q01DX009 (ip), vehicle: saline, higher = longer survival
  T/C: 108 % of control
endpoint: median survival time, dose: 8.0 mg/kg/injection, schedule: Q01DX009 (ip), vehicle: saline, higher = longer survival
  T/C: 118 % of control
endpoint: median survival time, dose: 8.0 mg/kg/injection, schedule: Q01DX009 (ip), vehicle: suspension in saline, higher = longer survival
  T/C: 118 % of control
endpoint: median survival time, dose: 16.0 mg/kg/injection, schedule: Q01DX009 (ip), vehicle: saline, higher = longer survival
  T/C: 119 % of control
endpoint: median survival time, dose: 16.0 mg/kg/injection, schedule: Q01DX009 (ip), vehicle: suspension in saline, higher = longer survival
  T/C: 119 % of control
endpoint: median tumor weight (est.), dose: 4.0 mg/kg/injection, schedule: Q01DX009 (ip), vehicle: saline, higher = larger tumour
  T/C: 64 % of control
endpoint: median tumor weight (est.), dose: 8.0 mg/kg/injection, schedule: Q01DX009 (ip), vehicle: saline, higher = larger tumour
  T/C: 33 % of control
endpoint: median tumor weight (est.), dose: 8.0 mg/kg/injection, schedule: Q01DX009 (ip), vehicle: suspension in saline, higher = larger tumour
  T/C: 24 % of control
endpoint: median tumor weight (est.), dose: 16.0 mg/kg/injection, schedule: Q01DX009 (ip), vehicle: saline, higher = larger tumour
  T/C: 8 % of control
endpoint: median tumor weight (est.), dose: 16.0 mg/kg/injection, schedule: Q01DX009 (ip), vehicle: suspension in saline, higher = larger tumour
  T/C: 6 % of control

## CC1(CO)C(O)CCC2(C)C1CCC1CC3CC12CCC3(O)CO (stereo not given)
endpoint: median survival time, dose: 23.3 mg/kg/injection, schedule: Q01DX017 (sc), vehicle: Klucel (hydroxypropylcellulose) (HPC), higher = longer survival
  T/C: 93 % of control
endpoint: median survival time, dose: 38.9 mg/kg/injection, schedule: Q01DX017 (oral), vehicle: Klucel (hydroxypropylcellulose) (HPC), higher = longer survival
  T/C: 93 % of control
endpoint: median survival time, dose: 64.8 mg/kg/injection, schedule: Q01DX017 (ip), vehicle: Klucel (hydroxypropylcellulose) (HPC), higher = longer survival
  T/C: 124 % of control
endpoint: median survival time, dose: 64.8 mg/kg/injection, schedule: Q01DX017 (oral), vehicle: Klucel (hydroxypropylcellulose) (HPC), higher = longer survival
  T/C: 102 % of control and 109 % of control
endpoint: median survival time, dose: 64.8 mg/kg/injection, schedule: Q01DX017 (sc), vehicle: Klucel (hydroxypropylcellulose) (HPC), higher = longer survival
  T/C: 163 % of control
endpoint: median survival time, dose: 77.8 mg/kg/injection, schedule: Q04DX005 (ip), vehicle: Klucel (hydroxypropylcellulose) (HPC), higher = longer survival
  T/C: 103 % of control
endpoint: median survival time, dose: 83.7 mg/kg/injection, schedule: Q01DX017 (oral), vehicle: Klucel (hydroxypropylcellulose) (HPC), higher = longer survival
  T/C: 116 % of control
endpoint: median survival time, dose: 100.0 mg/kg/injection, schedule: Q03HX003 (sc), vehicle: Klucel (hydroxypropylcellulose) (HPC), higher = longer survival
  T/C: 106 % of control
endpoint: median survival time, dose: 100.0 mg/kg/injection, schedule: Q03HX003 (sc), vehicle: saline, higher = longer survival
  T/C: 102 % of control
endpoint: median survival time, dose: 108.0 mg/kg/injection, schedule: Q01DX017 (ip), vehicle: Klucel (hydroxypropylcellulose) (HPC), higher = longer survival
  T/C: 116 % of control
endpoint: median survival time, dose: 108.0 mg/kg/injection, schedule: Q01DX017 (oral), vehicle: Klucel (hydroxypropylcellulose) (HPC), higher = longer survival
  T/C: 100 % of control and 118 % of control
endpoint: median survival time, dose: 108.0 mg/kg/injection, schedule: Q01DX017 (sc), vehicle: Klucel (hydroxypropylcellulose) (HPC), higher = longer survival
  T/C: 113 % of control and 121 % of control
endpoint: median survival time, dose: 130.0 mg/kg/injection, schedule: Q04DX005 (ip), vehicle: Klucel (hydroxypropylcellulose) (HPC), higher = longer survival
  T/C: 103 % of control
endpoint: median survival time, dose: 139.0 mg/kg/injection, schedule: Q01DX017 (oral), vehicle: Klucel (hydroxypropylcellulose) (HPC), higher = longer survival
  T/C: 118 % of control
endpoint: median survival time, dose: 180.0 mg/kg/injection, schedule: Q01DX017 (oral), vehicle: Klucel (hydroxypropylcellulose) (HPC), higher = longer survival
  T/C: 116 % of control
endpoint: median survival time, dose: 200.0 mg/kg/injection, schedule: Q03HX003 (sc), vehicle: Klucel (hydroxypropylcellulose) (HPC), higher = longer survival
  T/C: 98 % of control
endpoint: median survival time, dose: 200.0 mg/kg/injection, schedule: Q03HX003 (sc), vehicle: saline, higher = longer survival
  T/C: 100 % of control
endpoint: median survival time, dose: 216.0 mg/kg/injection, schedule: Q04DX005 (ip), vehicle: Klucel (hydroxypropylcellulose) (HPC), higher = longer survival
  T/C: 104 % of control
endpoint: median survival time, dose: 300.0 mg/kg/injection, schedule: Q01DX017 (oral), vehicle: Klucel (hydroxypropylcellulose) (HPC), higher = longer survival
  T/C: 159 % of control
endpoint: median survival time, dose: 360.0 mg/kg/injection, schedule: Q04DX005 (ip), vehicle: Klucel (hydroxypropylcellulose) (HPC), higher = longer survival
  T/C: 106 % of control
endpoint: median survival time, dose: 600.0 mg/kg/injection, schedule: Q04DX005 (ip), vehicle: Klucel (hydroxypropylcellulose) (HPC), higher = longer survival
  T/C: 109 % of control

## O=C(O)CC(NC(=O)CP(=O)(O)O)C(=O)O (stereo not given)
endpoint: median survival time, dose: 38.9 mg/kg/injection, schedule: Q01DX004 (ip), vehicle: saline, higher = longer survival
  T/C: 109 % of control
endpoint: median survival time, dose: 64.8 mg/kg/injection, schedule: Q01DX004 (ip), vehicle: saline, higher = longer survival
  T/C: 114 % of control
endpoint: median survival time, dose: 75.0 mg/kg/injection, schedule: Q02DX010 (ip), vehicle: saline, higher = longer survival
  T/C: 176 % of control
endpoint: median survival time, dose: 150.0 mg/kg/injection, schedule: Q02DX010 (ip), vehicle: saline, higher = longer survival
  T/C: 169 % of control
endpoint: median survival time, dose: 180.0 mg/kg/injection, schedule: Q01DX004 (ip), vehicle: saline, higher = longer survival
  T/C: 124 % of control
endpoint: median survival time, dose: 300.0 mg/kg/injection, schedule: Q02DX010 (ip), vehicle: saline, higher = longer survival
  T/C: 181 % of control

## Cc1ccc(/C=C2\SC(=S)N(C3CC3)C2=O)cc1
[1]
  T/C: 103 % of control
[2]
  T/C: 94 % of control
[3]
  T/C: 98 % of control
[4]
  T/C: 105 % of control
[5]
  T/C: 80 % of control
[6]
  T/C: 93 % of control

## O=NN(CCCl)C(=O)NC1CCC(=O)NC1=O (stereo not given)
endpoint: median survival time, dose: 2.0 mg/kg/injection, schedule: Q01DX009 (ip), vehicle: saline + alcohol, higher = longer survival
  T/C: 170 % of control
endpoint: median survival time, dose: 4.0 mg/kg/injection, schedule: Q01DX009 (ip), vehicle: saline + alcohol, higher = longer survival
  T/C: 208 % of control
endpoint: median survival time, dose: 8.0 mg/kg/injection, schedule: Q01DX009 (ip), vehicle: saline + alcohol, higher = longer survival
  T/C: 86 % of control

## CC(=O)[C@H]1CC[C@H]2[C@@H]3C[C@H](C)C4=CC(=O)CC[C@]4(C)[C@H]3C(=O)C[C@]12C
endpoint: mean tumor weight, dose: 100.0 mg/kg/injection, schedule: Q02DX011 (ip), vehicle: Klucel (hydroxypropylcellulose) (HPC), higher = larger tumour
  T/C: 51 % of control
endpoint: mean tumor weight, dose: 200.0 mg/kg/injection, schedule: Q02DX011 (ip), vehicle: Klucel (hydroxypropylcellulose) (HPC), higher = larger tumour
  T/C: 74 % of control

## COC(=O)C(Cc1ccccc1)NS(=O)(=O)c1ccc(C)cc1 (stereo not given)
[1]
  T/C: 98 % of control
[2]
  T/C: 106 % of control
[3]
  T/C: 97 % of control
[5]
  T/C: 118 % of control

## CC/C(=C(/CC)c1ccc(O)cc1)c1ccc(O)cc1
endpoint: mean tumor weight, dose: 7.5 mg/kg/injection, schedule: Q02DX011 (ip), vehicle: Klucel (hydroxypropylcellulose) (HPC), higher = larger tumour
  T/C: 114 % of control
endpoint: mean tumor weight, dose: 15.0 mg/kg/injection, schedule: Q02DX011 (ip), vehicle: Klucel (hydroxypropylcellulose) (HPC), higher = larger tumour
  T/C: 62 % of control and 87 % of control
endpoint: mean tumor weight, dose: 60.0 mg/kg/injection, schedule: Q02DX011 (ip), vehicle: Klucel (hydroxypropylcellulose) (HPC), higher = larger tumour
  T/C: 55 % of control
endpoint: median tumor weight (est.), dose: 15.0 mg/kg/injection, schedule: Q02DX011 (ip), vehicle: Klucel (hydroxypropylcellulose) (HPC), higher = larger tumour
  T/C: 88 % of control
endpoint: median tumor weight (est.), dose: 30.0 mg/kg/injection, schedule: Q02DX011 (ip), vehicle: Klucel (hydroxypropylcellulose) (HPC), higher = larger tumour
  T/C: 66 % of control
endpoint: median tumor weight (est.), dose: 60.0 mg/kg/injection, schedule: Q02DX011 (ip), vehicle: Klucel (hydroxypropylcellulose) (HPC), higher = larger tumour
  T/C: 28 % of control

## CCC(NN)C(=O)OCc1ccccc1 (stereo not given)
[1]
  T/C: 107 % of control
[2]
  T/C: 104 % of control
[3]
  T/C: 104 % of control
[4]
  T/C: 75 % of control
[5]
  T/C: 103 % of control
[6]
  T/C: 109 % of control
